Test results: ChEMBL document CHEMBL1201862, “PubChem BioAssay data set” (2004)
Where a name gives a salt, the structure may show the parent alone.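 Tested at 5 concentrations; 48 h exposure; 96-well plates; endpoints linearly interpolated, else capped at highest concentration. Abbreviation: GI50, concentration required for 50% inhibition of growth.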 The source made the active and inactive calls. No stated cut-off is given here; in the data, active = GI50 up to about 1.1 µM and inactive = higher.

Experiments:
Assay in all cases: NCI anticancer screen, dose series, 48 h
Malme-3M = system: Malme-3M
OVCAR-3 = system: OVCAR-3
OVCAR-4 = system: OVCAR-4
786-0 = system: 786-0
SF-295 = system: SF-295
M19-MEL = system: M19-MEL
SK-MEL-5 = system: SK-MEL-5
DMS-273 = system: DMS-273
SF-539 = system: SF-539
HCT-15 = system: HCT-15
HOP-62 = system: HOP-62
K562 = system: K562
CCRF-CEM = system: CCRF-CEM
RXF 631 = system: RXF 631
HL-60 = system: HL-60
LOX IMVI = system: LOX IMVI
DLD-1 = system: DLD-1
EKVX = system: EKVX
UACC-257 = system: UACC-257
NCI-H460 = system: NCI-H460
SF-268 = system: SF-268
KM-20L2 = system: KM-20L2
XF498 = system: XF498
SNB-75 = system: SNB-75
A549 = system: A549
HCT-116 = system: HCT-116
CAKI-1 = system: CAKI-1
UACC-62 = system: UACC-62
OVCAR-8 = system: OVCAR-8
U-251 = system: U-251
SW-620 = system: SW-620
SK-MEL-2 = system: SK-MEL-2
KM12 = system: KM12
SNB-19 = system: SNB-19
SK-MEL-28 = system: SK-MEL-28
IGROV-1 = system: IGROV-1
LXFL 529 = system: LXFL 529
HOP-18 = system: HOP-18
SK-OV-3 = system: SK-OV-3
ACHN = system: ACHN
DMS-114 = system: DMS-114
SNB-78 = system: SNB-78
M14 = system: M14
RXF 393 = system: RXF 393
HOP-92 = system: HOP-92
HCC 2998 = system: HCC 2998
TK-10 = system: TK-10
UO-31 = system: UO-31
NCI-H23 = system: NCI-H23
NCI-H522 = system: NCI-H522
COLO 205 = system: COLO 205
HT-29 = system: HT-29
A498 = system: A498
RPMI-8226 = system: RPMI-8226
NCI-H226 = system: NCI-H226
OVCAR-5 = system: OVCAR-5
MOLT-4 = system: MOLT-4
SN12C = system: SN12C
MDA-MB-231 = system: MDA-MB-231
MDA-MB-435 = system: MDA-MB-435
MDA-N = system: MDA-N
PC-3 = system: PC-3
T47D = system: T47D
MCF7 = system: MCF7
BT-549 = system: BT-549

Q: Which results are given for `O=C1OC(c2ccccc2)=N/C1=C/N1CCCC1C(=O)O` (configuration not stated)?
A: GI50 (Malme-3M): > 100 µM (inactive); GI50 (OVCAR-3): > 100 µM (inactive); GI50 (OVCAR-4): > 100 µM (inactive); GI50 (786-0): > 100 µM (inactive); GI50 (SF-295): > 100 µM (inactive); GI50 (M19-MEL): > 100 µM (inactive); GI50 (SK-MEL-5): > 100 µM (inactive); GI50 (DMS-273): > 100 µM (inactive); GI50 (SF-539): > 100 µM (inactive); GI50 (HCT-15): > 100 µM; GI50 (HOP-62): > 100 µM (inactive); GI50 (K562): > 100 µM (inactive); GI50 (CCRF-CEM): > 100 µM (inactive); GI50 (RXF 631): > 100 µM (inactive); GI50 (HL-60): > 100 µM (inactive); GI50 (LOX IMVI): > 100 µM (inactive); GI50 (DLD-1): > 100 µM (inactive); GI50 (EKVX): > 100 µM (inactive); GI50 (UACC-257): > 100 µM (inactive); GI50 (NCI-H460): > 100 µM (inactive); GI50 (SF-268): > 100 µM (inactive); GI50 (KM-20L2): > 100 µM (inactive); GI50 (XF498): > 100 µM (inactive); GI50 (SNB-75): > 100 µM (inactive); GI50 (A549): > 100 µM (inactive); GI50 (HCT-116): > 100 µM (inactive); GI50 (CAKI-1): > 100 µM (inactive); GI50 (UACC-62): > 100 µM (inactive); GI50 (OVCAR-8): > 100 µM (inactive); GI50 (U-251): > 100 µM (inactive); GI50 (SW-620): > 100 µM (inactive); GI50 (SK-MEL-2): > 100 µM (inactive); GI50 (KM12): > 100 µM (inactive); GI50 (SNB-19): > 100 µM (inactive); GI50 (SK-MEL-28): > 100 µM (inactive); GI50 (IGROV-1): > 100 µM (inactive); GI50 (LXFL 529): > 100 µM (inactive); GI50 (HOP-18): > 100 µM (inactive); GI50 (SK-OV-3): > 100 µM (inactive); GI50 (ACHN): > 100 µM (inactive); GI50 (DMS-114): > 100 µM (inactive); GI50 (SNB-78): > 100 µM (inactive); GI50 (M14): > 100 µM (inactive); GI50 (RXF 393): > 100 µM (inactive); GI50 (HOP-92): > 100 µM (inactive); GI50 (HCC 2998): > 100 µM (inactive); GI50 (TK-10): > 100 µM (inactive); GI50 (UO-31): > 100 µM (inactive); GI50 (NCI-H23): > 100 µM (inactive); GI50 (NCI-H522): > 100 µM (inactive); GI50 (COLO 205): > 100 µM (inactive); GI50 (HT-29): > 100 µM (inactive); GI50 (A498): > 100 µM (inactive); GI50 (RPMI-8226): > 100 µM (inactive); GI50 (NCI-H226): > 100 µM (inactive); GI50 (OVCAR-5): > 100 µM (inactive)

Q: Which results are given for `CNC(C)Cc1ccccc1OC` (configuration not stated) [METHOXYPHENAMINE HYDROCHLORIDE]?
A: GI50 (Malme-3M): > 100 µM (inactive); GI50 (OVCAR-3): > 100 µM (inactive); GI50 (OVCAR-4): > 100 µM (inactive); GI50 (786-0): > 100 µM (inactive); GI50 (MOLT-4): > 100 µM (inactive); GI50 (SF-295): > 100 µM (inactive); GI50 (SK-MEL-5): > 100 µM (inactive); GI50 (DMS-273): > 100 µM (inactive); GI50 (SF-539): > 100 µM (inactive); GI50 (HCT-15): > 100 µM; GI50 (HOP-62): > 100 µM (inactive); GI50 (K562): > 100 µM (inactive); GI50 (CCRF-CEM): > 100 µM (inactive); GI50 (RXF 631): > 100 µM (inactive); GI50 (HL-60): > 100 µM (inactive); GI50 (LOX IMVI): > 100 µM (inactive); GI50 (DLD-1): > 100 µM (inactive); GI50 (EKVX): > 100 µM (inactive); GI50 (UACC-257): > 100 µM (inactive); GI50 (NCI-H460): > 100 µM (inactive); GI50 (SF-268): > 100 µM (inactive); GI50 (KM-20L2): > 100 µM (inactive); GI50 (XF498): > 100 µM (inactive); GI50 (SNB-75): > 100 µM (inactive); GI50 (A549): > 100 µM (inactive); GI50 (HCT-116): > 100 µM (inactive); GI50 (CAKI-1): > 100 µM (inactive); GI50 (UACC-62): > 100 µM (inactive); GI50 (OVCAR-8): > 100 µM (inactive); GI50 (U-251): > 100 µM (inactive); GI50 (SW-620): > 100 µM (inactive); GI50 (SK-MEL-2): > 100 µM (inactive); GI50 (KM12): > 100 µM (inactive); GI50 (SNB-19): > 100 µM (inactive); GI50 (SK-MEL-28): > 100 µM (inactive); GI50 (IGROV-1): > 100 µM (inactive); GI50 (LXFL 529): > 100 µM (inactive); GI50 (HOP-18): > 100 µM (inactive); GI50 (SK-OV-3): > 100 µM (inactive); GI50 (ACHN): > 100 µM (inactive); GI50 (DMS-114): > 100 µM (inactive); GI50 (SNB-78): > 100 µM (inactive); GI50 (M14): > 100 µM (inactive); GI50 (RXF 393): > 100 µM (inactive); GI50 (HOP-92): > 100 µM (inactive); GI50 (SN12C): > 100 µM (inactive); GI50 (HCC 2998): > 100 µM (inactive); GI50 (TK-10): > 100 µM (inactive); GI50 (UO-31): > 100 µM (inactive); GI50 (NCI-H23): > 100 µM (inactive); GI50 (NCI-H522): > 100 µM (inactive); GI50 (COLO 205): > 100 µM (inactive); GI50 (HT-29): > 100 µM (inactive); GI50 (A498): > 100 µM (inactive); GI50 (RPMI-8226): > 100 µM (inactive); GI50 (NCI-H226): > 100 µM (inactive); GI50 (OVCAR-5): > 100 µM (inactive)

Q: What does the source list for `COC(=O)Nc1nc2cc(C(=O)c3cccs3)ccc2[nH]1` [NOCODAZOLE]?
A: GI50 (Malme-3M): 0.0272 µM (active); GI50 (OVCAR-4): 22.3 µM (inactive); GI50 (786-0): 0.0789 µM (active); GI50 (MOLT-4): 0.0205 µM (active); GI50 (MDA-MB-231): 0.171 µM (active); GI50 (SF-295): 0.0128 µM (active); GI50 (MDA-MB-435): 0.0111 µM (active); GI50 (M19-MEL): 0.195 µM (active); GI50 (DMS-273): 0.0322 µM (active); GI50 (HCT-15): 0.0198 µM; GI50 (MDA-N): 0.0124 µM (active); GI50 (HOP-62): 0.0287 µM (active); GI50 (K562): < 0.0118 µM (active); GI50 (CCRF-CEM): 0.0145 µM (active); GI50 (RXF 631): 0.07 µM (active); GI50 (HL-60): 0.0113 µM (active); GI50 (LOX IMVI): 0.0214 µM (active); GI50 (DLD-1): 0.0344 µM (active); GI50 (EKVX): 0.0397 µM (active); GI50 (UACC-257): < 0.148 µM (active); GI50 (NCI-H460): 0.0179 µM (active); GI50 (PC-3): 0.0141 µM (active); GI50 (SF-268): 0.0893 µM (active); GI50 (KM-20L2): < 0.0132 µM (active); GI50 (XF498): 0.0314 µM (active); GI50 (T47D): > 80.9 µM (inactive); GI50 (MCF7): 0.0422 µM (active); GI50 (A549): 0.0186 µM (active); GI50 (HCT-116): 0.0152 µM (active); GI50 (CAKI-1): 1.11 µM (active); GI50 (UACC-62): 0.0184 µM (active); GI50 (OVCAR-8): 0.029 µM (active); GI50 (U-251): 0.0403 µM (active); GI50 (SW-620): 0.0141 µM (active); GI50 (SK-MEL-2): < 0.0193 µM (active); GI50 (KM12): 0.0139 µM (active); GI50 (SNB-19): 0.0857 µM (active); GI50 (SK-MEL-28): 0.0957 µM (active); GI50 (IGROV-1): 0.0242 µM (active); GI50 (LXFL 529): 0.0532 µM (active); GI50 (HOP-18): 32.8 µM (inactive); GI50 (BT-549): 0.0527 µM (active); GI50 (SK-OV-3): 0.0165 µM (active); GI50 (ACHN): 0.225 µM (active); GI50 (DMS-114): 0.0424 µM (active); GI50 (SNB-78): 0.0322 µM (active); GI50 (M14): 0.014 µM (active); GI50 (RXF 393): 0.0134 µM (active); GI50 (HOP-92): 0.292 µM (active); GI50 (SN12C): 0.074 µM (active); GI50 (TK-10): 2.95 µM (inactive); GI50 (UO-31): 0.0579 µM (active); GI50 (NCI-H23): 0.0168 µM (active); GI50 (COLO 205): 0.0194 µM (active); GI50 (HT-29): 0.0142 µM (active); GI50 (A498): 0.0196 µM (active); GI50 (RPMI-8226): < 0.0132 µM (active); GI50 (NCI-H226): 0.0625 µM (active); GI50 (OVCAR-5): 20.7 µM (inactive)
